{"source": "paper PMC9798707", "about": "“Targeting SOST using a small-molecule compound retards breast cancer bone metastasis” (Molecular Cancer, 2022)", "biological_target": "T1, SOST (Homo sapiens, UniProt Q9BQB4)", "T1 construct": "commercial recombinant SOST (SinoBio 10593-H07H), biotinylated and immobilized on Octet SSA biosensors", "T1 sequence (Q9BQB4 24-213)": "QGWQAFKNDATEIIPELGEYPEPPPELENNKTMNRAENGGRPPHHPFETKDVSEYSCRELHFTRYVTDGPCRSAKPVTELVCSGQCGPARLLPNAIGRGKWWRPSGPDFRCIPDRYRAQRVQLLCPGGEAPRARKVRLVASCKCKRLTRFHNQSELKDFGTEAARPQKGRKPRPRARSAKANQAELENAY", "experiment": "biochemical", "set-up": "biolayer interferometry (Octet K2), compound binding to immobilized biotinylated SOST, multi-concentration", "conditions": "multi-concentration BLI, 30 C", "description": "The affinity of S6 binding to SOST was measured, as described previously using an Octet K2 instrument (ForteBio). All assays were run at 30 °C with continuous shaking of 1000 RPM using the assay buffer of 0.1% BSA, 0.01% Tween-20 and 1% DMSO in PBS. SOST (10,593-H07H, SinoBio, Beijing, China) at 0.15 mg/ml was dissolved in sterile water, biotinylated and immobilized onto the Octet SSA biosensors. S6 (C29H24N6O2S, molecular weight 520.62, Chemdiv, USA) was dissolved in PBS and adjusted to different concentrations for BLI. After each round of association and disassociation, the SOST-contained sensors were washed with the assay buffer for 10 min to remove nonspecifically bound molecules. Raw kinetic data were obtained. The kon and koff values were analyzed using the software provided and the Kd values were calculated, based on double reference subtraction. We next sought to model the interaction of SOST with STAT3 and identify its inhibitors from a small-molecule chemical library (Fig. 4A). […] Subsequently, we performed virtual screening for compounds that might block the binding of SOST to STAT3 (Fig. 4C). We screened approximately 120,000 compounds and obtained 38 candidates. We tested single-concentration of them in BLI test. Data from 35 of these compounds are shown in Figure S4 and SI Table 1, except for compounds 2, 10, and 25, which could not be detected due to poor solubility. […] compounds (6, 11, 12, 17, 22, 24, 34, 38) were screened by multi-concentration gradients to obtain R2, Kd, kdis, and response parameters (Fig. 4D-E, Fig. S5 and SI Table 2). Four compounds, 6, 11, 28, and 34, were selected for drug sensitivity testing (Fig. 4F and Fig. S5). […] S6 boudn to SOST with a high affinity (Fig. 4G).", "data": [{"smiles": "Cc1ccc(-c2nnc(Nc3ccccc3)c3ccccc23)cc1S(=O)(=O)NCc1nc2ccccc2[nH]1", "note": "[compound 6, S6]", "values": [{"measurement": "Kd", "result": 399, "unit": "µM"}, {"measurement": "kon", "result": 765, "unit": "M⁻¹ s⁻¹"}, {"measurement": "koff", "setting": "read-out: kdis", "result": 0.305, "unit": "s⁻¹"}]}]}
